One experiment concerns rat striatal slices. The experiment is described as follows: In vitro [^3H]-Dopamine release. The format is cell-based.
Another experiment addresses T1, dopamine uptake sites (Rattus norvegicus, UniProt P23977).
T1 construct: the striatum was rapidly removed and a crude synaptosomal fraction (P2) was prepared; from tissue; host or cells: rat striatum, crude synaptosomal fraction (P2)
Kind of experiment: In vitro [^3H]-Dopamine uptake in striatal synaptosomes. The class given is biochemical. As to the method:
Subsequently, [^3H]-dopamine (2x10^-7 M final concentration) was added and incubation was continued for 10 min. [^3H]-dopamine uptake was stopped by filtration and the synaptosomes were washed four times with phosphate buffered saline. The amount of [^3H]-dopamine in the synaptosomes was determined by Betaplate liquid scintillation counting. […] Inhibition of DA uptake was performed in duplicate.

Where [1] appears, read: K+ (10 mM) evoked release, rat striatal slices, compounds added at 10^-8 M and 10^-6 M, table does not say which concentration.
Setting [2] is: rat striatal synaptosomes, 10^-9 to 10^-5 M, read-out: Functional activity re-uptake [^3H]-Dopamine pIC50 (converted).

Molecules are shown by their SMILES. Read-outs that look alike come from different tables or passages of the source. Bounds are passed on as bounds.

T1 sequence (P23977 whole entry): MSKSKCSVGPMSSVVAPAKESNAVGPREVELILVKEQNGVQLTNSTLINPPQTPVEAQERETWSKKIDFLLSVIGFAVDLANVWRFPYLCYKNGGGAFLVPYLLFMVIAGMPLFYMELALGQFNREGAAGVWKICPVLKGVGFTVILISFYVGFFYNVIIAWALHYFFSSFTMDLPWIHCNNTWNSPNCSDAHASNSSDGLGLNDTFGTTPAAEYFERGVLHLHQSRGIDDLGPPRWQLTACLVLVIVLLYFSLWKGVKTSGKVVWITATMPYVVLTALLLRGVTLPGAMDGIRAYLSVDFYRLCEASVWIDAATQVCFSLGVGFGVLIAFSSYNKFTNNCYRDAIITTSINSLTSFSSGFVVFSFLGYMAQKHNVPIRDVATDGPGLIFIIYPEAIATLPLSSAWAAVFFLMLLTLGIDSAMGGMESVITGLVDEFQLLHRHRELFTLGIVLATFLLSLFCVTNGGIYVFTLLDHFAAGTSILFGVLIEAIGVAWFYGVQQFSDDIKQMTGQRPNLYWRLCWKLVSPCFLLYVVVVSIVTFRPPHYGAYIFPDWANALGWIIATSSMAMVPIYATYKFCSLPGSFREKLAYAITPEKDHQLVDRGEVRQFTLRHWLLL

Consider `c1cnc2[nH]cc(C[C@H]3CCCN3)c2c1` (stereo in doubt) [Compound 96, (R)-3-pyrrolidin-2-ylmethyl-1H-pyrrolo-[2,3-b]pyridine, reference compound], for which the “Functional activity release [^3H]-Dopamine % of control” value in the experiment on rat striatal slices is reported as 124 % of control.

As for `CN1CCC[C@@H]1Cc1c[nH]c2ncccc12` (stereo in doubt) [Compound 98, reference compound], in the experiment on rat striatal slices (setting [1]), the “Functional activity release [^3H]-Dopamine % of control” value is reported as 132 % of control. Besides, the IC50 on dopamine uptake sites (setting [2]) is over 10 µM.

As to `CN1CCC[C@H]1Cc1c[nH]c2ncccc12` (stereo in doubt) [Compound 99, reference compound], in the experiment on rat striatal slices (setting [1]), the “Functional activity release [^3H]-Dopamine % of control” value is given as 112 % of control. As for `c1cnc2[nH]cc(C3CCCNC3)c2c1` (centres unmarked) [Compound 6, 3-piperidin-3-yl-1 H-pyrrolo[2,3-b]pyridine], the “Functional activity release [^3H]-Dopamine % of control” value in the experiment on rat striatal slices (setting [1]) is 139 % of control. In addition, the IC50 against dopamine uptake sites was 3.98 µM. Take `Clc1ccc2c(C3CCCNC3)c[nH]c2n1` (centres unmarked) [Compound 13, 6-chloro-3-piperidin-3-yl-1 H-pyrrolo[2,3-b]pyridine]: the “Functional activity release [^3H]-Dopamine % of control” value in the experiment with rat striatal slices (setting [1]) is recorded as 174 % of control. In addition, the IC50 at dopamine uptake sites (setting [2]) was 1.58 µM.

Regarding `c1cnc2[nH]c([C@H]3CCCNC3)cc2c1` [Compound 26A, (S)-2-piperidin-3-yl-1H-pyrrolo[2,3-b]pyridine], the “Functional activity release [^3H]-Dopamine % of control” value in the experiment with rat striatal slices (setting [1]) was 139 % of control. Besides, the IC50 at dopamine uptake sites (setting [2]) is 2.51 µM. With `c1cnc2[nH]c([C@@H]3CCCNC3)cc2c1` [Compound 26B, (R)-2-piperidin-3-yl-1H-pyrrolo[2,3-b]pyridine], the “Functional activity release [^3H]-Dopamine % of control” value with rat striatal slices (setting [1]) is 121 % of control. For the same compound, the IC50 at dopamine uptake sites was 0.631 µM.

Take `Clc1ccc2cc(C3CCCNC3)[nH]c2n1` (centres unmarked) [Compound 32, 6-chloro-2-piperidin-3-yl-1H-pyrrolo[2,3-b]pyridine]: the “Functional activity release [^3H]-Dopamine % of control” value with rat striatal slices (setting [1]) is given as 173 % of control. Consider `Clc1ccc2cc([C@@H]3CCCNC3)[nH]c2n1` [Compound 32B, (R)-6-chloro-2-piperidin-3-yl-1H-pyrrolo[2,3-b]pyridine], for which the “Functional activity release [^3H]-Dopamine % of control” value with rat striatal slices (setting [1]) is reported as 170 % of control. Besides, the IC50 at dopamine uptake sites was 0.398 µM. Turning to `c1cnc2[nH]c(C[C@H]3CCCN3)cc2c1` [Compound 39A, (R)-2-pyrrolidin-2-ylmethyl-1H-pyrrolo[2,3-b]pyridine], the “Functional activity release [^3H]-Dopamine % of control” value in the experiment with rat striatal slices was 151 % of control. Consider `c1cnc2[nH]c(C[C@@H]3CCCN3)cc2c1` [Compound 39B, (S)-2-pyrrolidin-2-ylmethyl-1H-pyrrolo[2,3-b]pyridine], for which, in the experiment on rat striatal slices (setting [1]), the “Functional activity release [^3H]-Dopamine % of control” value was 133 % of control. On the same count and under the same terms, for `CN1CCC[C@@H]1Cc1cc2cccnc2[nH]1` [Compound 41A, (R)-2-(1-Methyl-pyrrolidin-2-ylmethyl)-1H-pyrrolo[2,3-b]pyridine] the value was 100 % of control; for `Clc1ccc2cc(C[C@H]3CCCN3)[nH]c2n1` [Compound 45A, (R)-6-chloro-2-pyrrolidin-2-ylmethyl-1H-pyrrolo[2,3-b]pyridine], 115 % of control. With `Clc1ccc2cc(C[C@@H]3CCCN3)[nH]c2n1` [Compound 45B, (S)-6-chloro-2-pyrrolidin-2-ylmethyl-1H-pyrrolo[2,3-b]pyridine], the “Functional activity release [^3H]-Dopamine % of control” value with rat striatal slices (setting [1]) is reported as 153 % of control. The IC50 at dopamine uptake sites (setting [2]) was 2.51 µM.

Consider `Brc1ccc2cc(C[C@H]3CCCN3)[nH]c2n1` [Compound 46A, (R)-6-bromo-2-pyrrolidin-2-ylmethyl-1H-pyrrolo[2,3-b]pyridine], for which the “Functional activity release [^3H]-Dopamine % of control” value in the experiment on rat striatal slices (setting [1]) was 92 % of control. On the same count and under the same terms, for `Brc1ccc2cc(C[C@@H]3CCCN3)[nH]c2n1` [Compound 46B, (S)-6-bromo-2-pyrrolidin-2-ylmethyl-1H-pyrrolo[2,3-b]pyridine] the value was 123 % of control; for `Fc1ccc2cc(C[C@H]3CCCN3)[nH]c2n1` [Compound 47A, (R)-6-fluoro-2-pyrrolidin-2-ylmethyl-1H-pyrrolo[2,3-b]pyridine], 137 % of control. On to `Fc1ccc2cc(C[C@@H]3CCCN3)[nH]c2n1` [Compound 47B, (S)-6-fluoro-2-pyrrolidin-2-ylmethyl-1H-pyrrolo[2,3-b]pyridine], for which the “Functional activity release [^3H]-Dopamine % of control” value in the experiment on rat striatal slices (setting [1]) is recorded as 128 % of control. Also, on dopamine uptake sites (setting [2]), the IC50 was 3.98 µM. As to `COc1ccc2cc(C[C@H]3CCCN3)[nH]c2n1` [Compound 49, (R)-6-methoxy-2-pyrrolidin-2-ylmethyl-1H-pyrrolo[2,3-b]pyridine], the “Functional activity release [^3H]-Dopamine % of control” value with rat striatal slices was 160 % of control. On to `Brc1cnc2[nH]c(C[C@H]3CCCN3)cc2c1` [Compound 52A, (R)-5-bromo-2-pyrrolidin-2-ylmethyl-1H-pyrrolo[2,3-b]pyridine], for which, in the experiment with rat striatal slices, the “Functional activity release [^3H]-Dopamine % of control” value is 135 % of control. As to `c1cnc2[nH]c(C3CCNC3)cc2c1` (centres unmarked) [Compound 78, 2-pyrrolidin-3-yl-1H-pyrrolo[2,3-b]pyridine], the “Functional activity release [^3H]-Dopamine % of control” value in the experiment on rat striatal slices (setting [1]) is 154 % of control. The IC50 on dopamine uptake sites (setting [2]) is 2 µM. With `c1cnc2[nH]c([C@H]3CCNC3)cc2c1` [Compound 78A, (S)-2-pyrrolidin-3-yl-1H-pyrrolo[2,3-b]pyridine], the “Functional activity release [^3H]-Dopamine % of control” value in the experiment with rat striatal slices (setting [1]) is recorded as 109 % of control. The IC50 at dopamine uptake sites (setting [2]) was 3.98 µM.

On to `c1cnc2[nH]c([C@@H]3CCNC3)cc2c1` [Compound 78B, (R)-2-pyrrolidin-3-yl-1H-pyrrolo[2,3-b]pyridine], for which, in the experiment on rat striatal slices (setting [1]), the “Functional activity release [^3H]-Dopamine % of control” value is given as 187 % of control. The IC50 at dopamine uptake sites (setting [2]) was 1.58 µM. Taken in the same sequence, the figures for `c1cnc2cc(C3CCNC3)[nH]c2c1` (centres unmarked) [Compound 79, 2-pyrrolidin-3-yl-1H-pyrrolo[3,2-b]pyridine] were 119 % of control and 6.31 µM.

Regarding `c1cnc2cc(C[C@H]3CCCN3)[nH]c2c1` [Compound 81A, (R)-2-pyrrolidin-2-ylmethyl-1H-pyrrolo[3,2-b]pyridine], in the experiment with rat striatal slices, the “Functional activity release [^3H]-Dopamine % of control” value is recorded as 153 % of control. Still for that read-out and setting: under `c1cnc2cc(C[C@@H]3CCCN3)[nH]c2c1` [Compound 81B, (S)-2-pyrrolidin-2-ylmethyl-1H-pyrrolo[3,2-b]pyridine] stands 120 % of control. Consider `COc1ccc2[nH]c(C[C@H]3CCCN3)cc2n1` [Compound 85, (R)-5-methoxy-2-pyrrolidin-2-ylmethyl-1H-pyrrolo[3,2-b]pyridine], for which the “Functional activity release [^3H]-Dopamine % of control” value in the experiment with rat striatal slices is reported as 131 % of control. As to `c1cnc2c(C[C@H]3CCCN3)c[nH]c2c1` [Compound 88, (R)-3-pyrrolidin-2-ylmethyl-1H-pyrrolo[3,2-b]pyridine], the “Functional activity release [^3H]-Dopamine % of control” value in the experiment on rat striatal slices (setting [1]) is given as 110 % of control. For the same compound, on dopamine uptake sites (setting [2]), the IC50 was 7.94 µM. Taken in the same sequence, the figures for `CC(NC(C)(C)C)C(=O)c1cccc(Cl)c1` (centres unmarked) [bupropion, reference compound] were 124 % of control and 3.98 µM. As to `O=c1cccc2n1C[C@@H]1CNC[C@H]2C1` [cytisine, reference compound], the “Functional activity release [^3H]-Dopamine % of control” value in the experiment with rat striatal slices (setting [1]) was 136 % of control. For the same compound, the IC50 against dopamine uptake sites was over 10 µM. Taken in the same sequence, the figures for `CN1CCCC1c1cccnc1` (centres unmarked) [nicotine, reference compound] were 180 % of control and over 10 µM.
